Laboratory results as given in patent publication US20230212159A1, “Process for the Production of Ferroportin Inhibitors” (Vifor (International) AG, priority 2020, published 2023).
Like-named read-outs stand apart in the source and are kept apart here.

Tests used:
human Fpn = target: T1, human Fpn (Homo sapiens, UniProt Q9NP59); experiment: Biophysical ferroportin-hepcidin binding assay (fluorescence polarization); conditions: TMR-hepcidin, tested as 3HCl-salts, n=2, read-out: Biophysical Ferroportin-Hepcidin Binding (FP) IC50
T1 construct: FLAG (C); made in house; host or cells: Pichia pastoris
T1 sequence (Q9NP59 1-571): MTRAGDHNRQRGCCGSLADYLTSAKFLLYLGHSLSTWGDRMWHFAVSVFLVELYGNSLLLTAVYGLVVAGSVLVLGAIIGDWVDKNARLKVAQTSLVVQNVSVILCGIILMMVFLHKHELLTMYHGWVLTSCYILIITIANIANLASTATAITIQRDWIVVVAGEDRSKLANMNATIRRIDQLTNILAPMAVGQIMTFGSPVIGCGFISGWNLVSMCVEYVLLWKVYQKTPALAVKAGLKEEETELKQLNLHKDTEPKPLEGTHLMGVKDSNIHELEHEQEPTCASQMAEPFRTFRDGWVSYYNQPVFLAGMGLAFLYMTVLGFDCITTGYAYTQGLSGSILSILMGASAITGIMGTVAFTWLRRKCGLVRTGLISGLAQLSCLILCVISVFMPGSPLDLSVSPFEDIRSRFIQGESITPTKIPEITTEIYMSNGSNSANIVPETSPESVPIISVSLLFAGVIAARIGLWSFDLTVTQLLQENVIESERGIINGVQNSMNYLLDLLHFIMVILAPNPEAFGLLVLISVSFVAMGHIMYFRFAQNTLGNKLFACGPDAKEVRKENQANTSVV
Procedure: This biophysical assay was developed to confirm inhibition of hepcidin binding to ferroportin (Fpn) more directly. Incubation of TMR-hepcidin with purified human Fpn isolated from Pichia pastoris yeast cells expressing human Fpn with a C-terminal FLAG affinity tag (Bonaccorsi di Patti, 2014) leads to increased fluorescence polarization (FP) of the TMR-hepcidin ligand.
A mixture of […] human Fpn and 30 nM TMR-hepcidin in FP assay buffer containing 50 mM Tris-HCI pH 7.3, 200 mM NaCI, 0.02% DDM, 0.1% BSA was plated into a 384 well black low volume round bottom plate (Corning, Cat. 3677) at […] per well. […] of serial dilutions of test compounds were added in duplicates to reach final Fpn and TMR-hepcidin concentrations of […] and 20 nM, respectively. Plates were incubated for 90 minutes at room temperature and parallel (S) and perpendicular (P) fluorescence was measured in a Synergy H1 fluorescence reader (BioTek). FP values were calculated in mP according to the following formula.
IC50 values were determined with the calculated mP values as described for the hepcidin internalization assay and are listed in Table 2.

[1] = target: T2, human Fpn-GFP fusion protein (Homo sapiens, UniProt Q9NP59); experiment: Ferroportin internalization and degradation assay (FACS, HEK-293 cell line #354); assay type: cell-based
T2 construct: expressed in transfected cells; host or cells: HEK-293 cell line #354 (derivative of HEK-293 Tet-ON Advanced)
T2 sequence (Q9NP59 1-571): T1 sequence (Q9NP59 1-571)
Procedure: HEK-293 cell line #354 (described in 11.3) was used to measure the capacity of the compounds to induce internalization and degradation of ferroportin (Fpn) by fluorescence activated cell sorting (FACS). Growing HEK-293 #354 cells in doxycycline containing media induced expression of human Fpn-GFP fusion protein on the cell surface. […] Small molecular weight Fpn inhibitor compounds were tested for dose-dependent effects on the Fpn-GFP mean fluorescence intensity (MFI) on HEK-293 cell line #354, as described below.
HEK#354 cells were harvested from ca. 80% confluent cultures, seeded at 0.6x10^6 cells/ml in DMEM/F12 GlutaMAX™ medium (Invitrogen, Cat. 31331-028) containing 10% FBS (Clontech, Cat. 631106), 1% Penicillin-Streptomycin (Invitrogen, Cat. 15140-122), 200 µg/ml Hygromycin B (Invitrogen, Cat. 10687-010), Blasticidin 5 µg/ml, (Invitrogen, Cat. R210-01), 4 µg/ml doxycycline (Clontech, Cat. 631311), 50 µl per well of 384 well plates (Greiner; Cat. 781091) and grown at 37° C. with 5% CO2. After overnight incubation, 10 µl/well of dilution series of the test compounds were added in quadruplicates and plates were further incubated overnight at 37° C. with 5% CO2. Cells were washed once with FACS buffer (PBS containing 1% FBS, 2 mM EDTA and 0.05% NaN3), harvested in FACS buffer with 0.5 µg/ml propidium iodide (Sigma, Cat. P4864) and analyzed in a flow cytometer (CANTO^tm II, BD Biosciences) equipped with high throughput sampler. Live HEK#354 cells were gated as propidium iodide negative population and analyzed for expression of Fpn-GFP. MFI of Fpn-GFP of > 2000 live cells for each compound dilution was calculated using FlowJo (Tree Star’s, Oregon) and the potency of the Fpn-inhibitors to induce internalization and degradation of Fpn-GFP was calculated as described for the hepcidin internalization assay. EC50 data of the Compounds (II) and (II′) tested in the ferroportin internalization and degradation assay by FACS are listed in Table 4. The average EC50 value of hepcidin in this assay is 0.004 ± 0.002 µM.

[2] = HEK-293 cell line #354, FACS, tested as 3HCl-salts, n=2, read-out: Fpn internalization and degradation (HEK354 FACS) IC50
[3] = average of multiple measurements, HEK-293 #354 FACS, 3HCl-salts, read-out: EC50 (ferroportin internalization and degradation assay)

Row | IC50 (human Fpn) [µM] | DC50 [1, 2] [µM] | DC50 [1, 3] [µM] | Compound
1 | 0.028 | 0.119 | 0.119 | O=C(NCc1ncccc1F)c1coc(CCNCCc2nc3ccccc3[nH]2)n1 [Compound (II)]
2 | – | 0.006 | – | CC[C@H](C)[C@@H]1NC(=O)[C@@H](NC(=O)[C@@H](NC(=O)[C@@H]2CCCN2C(=O)[C@H](Cc2ccccc2)NC(=O)[C@H](Cc2c[nH]cn2)NC(=O)[C@@H](NC(=O)[C@@H](N)CC(=O)O)[C@@H](C)O)[C@@H](C)CC)CSSC[C@@H](C(=O)N[C@@H](CCCCN)C(=O)N[C@H](C(=O)O)[C@@H](C)O)NC(=O)[C@@H]2CSSC[C@@H]3NC(=O)[C@@H]4CSSC[C@H](NC(=O)[C@H](Cc5ccccc5)NC1=O)C(=O)N[C@@H](CSSC[C@H](NC(=O)[C@H](CCCCN)NC(=O)[C@H](CO)NC(=O)[C@H](CCCNC(=N)N)NC(=O)[C@H](Cc1c[nH]cn1)NC3=O)C(=O)NCC(=O)N[C@@H](CCSC)C(=O)N2)C(=O)NCC(=O)N4 [hepcidin, reference compound]
3 | 0.028 | 0.161 | 0.161 | O=C(NCc1ncccc1Br)c1coc(CCNCCc2nc3ccccc3[nH]2)n1 [Compound (II′)]
